Read-outs that look alike come from different tables or passages of the source. Starred links: 1 amine or outer side, 2 acyl side, 3 side chain; linkers in the order of their positions; H or OH if unused. Non-standard residues stand in square brackets, D forms with d. Residues, ends and D or L forms follow the SMILES beside them. Groups on a side chain read outwards from the residue. *: point of attachment. C18 diacid = O=C(O)CCCCCCCCCCCCCCCCC(=O)*; γGlu = O=C(O)[C@H](CCC(=O)[*:2])N[*:1]; AEEA = NCCOCCOCC(=O)O; Aib = CC(C)(N)C(=O)O
Molecular target: T1, human CRF2α receptor (Homo sapiens, UniProt Q13324)
T1 construct: expressed in transfected cells; host or cells: TeloHEAC
T1 sequence (Q13324 1-411): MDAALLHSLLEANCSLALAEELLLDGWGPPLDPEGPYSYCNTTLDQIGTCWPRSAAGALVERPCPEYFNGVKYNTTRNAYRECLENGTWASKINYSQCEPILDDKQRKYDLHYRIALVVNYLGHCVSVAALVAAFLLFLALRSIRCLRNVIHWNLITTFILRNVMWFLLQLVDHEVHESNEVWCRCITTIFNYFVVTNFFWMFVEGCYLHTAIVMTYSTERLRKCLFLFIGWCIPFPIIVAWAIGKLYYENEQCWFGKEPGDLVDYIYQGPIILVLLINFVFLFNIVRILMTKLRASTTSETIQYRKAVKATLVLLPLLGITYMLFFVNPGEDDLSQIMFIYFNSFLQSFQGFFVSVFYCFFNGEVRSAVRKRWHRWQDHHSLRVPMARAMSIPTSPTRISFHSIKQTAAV
Assay: cAMP agonism at human CRF2 α receptor in TeloHEAC cells (Example 7)
Format: cell-based
Conditions: cAMP HTRF, TeloHEAC cells stably expressing human CRF2 α
Method in brief: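 Cryopreserved cells are thawed, washed and resuspended in IBMX-containing (2 mM) HEPES-buffered HBSS with or without 0.1% HSA. Compound incubation runs 30 min at room temperature with 2000 cells per well, then cAMP is measured by time-resolved FRET. Potency is expressed as EC50, efficacy relative to urocortin 2 at 1000 nM.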

[1] = 0% HSA, read-out: EC50 [nM], 0% HSA
[2] = 0.1% HSA, read-out: EC50 [nM], 0.1% HSA

Structure (SMILES)	EC50 [1]	EC50 [2]
CC[C@H](C)[C@H](N)C(=O)N[C@H](C(=O)N[C@@H](CC(C)C)C(=O)N[C@@H](CO)C(=O)N[C@@H](CC(C)C)C(=O)N[C@@H](CC(=O)O)C(=O)N[C@H](C(=O)N1CCC[C@H]1C(=O)N[C@H](C(=O)N[C@@H](CCCCN)C(=O)N[C@@H](CC(C)C)C(=O)N[C@@H](CCCCNC(=O)COCCOCCNC(=O)COCCOCCNC(=O)CC[C@H](NC(=O)CCCCCCCCCCCCCCCCC(=O)O)C(=O)O)C(=O)N[C@@H](CCC(N)=O)C(=O)N[C@H](C(=O)N[C@@H](CC(C)C)C(=O)N[C@@H](CC(C)C)C(=O)N[C@@H](CCCCN)C(=O)N[C@@H](CCC(N)=O)C(=O)N[C@@H](CCC(=O)O)C(=O)N[C@@H](CCCNC(=N)N)C(=O)N[C@@H](CCC(N)=O)C(=O)N[C@@H](CCCCN)C(=O)N[C@@H](CCCCN)C(=O)N[C@@H](CCC(N)=O)C(=O)N[C@@H](CCCNC(=N)N)C(=O)N[C@@H](CCC(=O)O)C(=O)N[C@@H](CCCCN)C(=O)N[C@@H](C)C(=O)N[C@@H](CCCCN)C(=O)N[C@H](C(=O)N[C@@H](CC(N)=O)C(=O)N[C@H](C(=O)N[C@@H](CCC(N)=O)C(=O)N[C@H](C(=O)N[C@@H](CC(C)C)C(=O)N[C@@H](C)C(=O)N[C@@H](CCC(N)=O)C(=O)N[C@H](C(N)=O)C(C)C)[C@@H](C)CC)C(C)C)[C@@H](C)O)[C@@H](C)CC)[C@@H](C)CC)C(C)C)C(C)C [compound 90] (H-IVLSLDVPIKLK([AEEA-AEEA-γGlu-C18 diacid])QILLKQERQKKQREKAKTNVQILAQV-NH2; N-terminus assumed)	3.91 nM	92.6 nM
CC[C@H](C)[C@H](N)C(=O)N[C@H](C(=O)N[C@@H](CC(C)C)C(=O)N[C@@H](CO)C(=O)N[C@@H](CC(C)C)C(=O)N[C@@H](CC(=O)O)C(=O)N[C@H](C(=O)N1CCC[C@H]1C(=O)N[C@H](C(=O)N[C@@H](CCCCN)C(=O)N[C@@H](CC(C)C)C(=O)N[C@@H](CCCCNC(=O)COCCOCCNC(=O)COCCOCCNC(=O)CC[C@H](NC(=O)CCCCCCCCCCCCCCCCC(=O)O)C(=O)O)C(=O)N[C@@H](CCC(N)=O)C(=O)N[C@@H](CCCCN)C(=O)N[C@@H](CC(C)C)C(=O)N[C@@H](CC(C)C)C(=O)N[C@@H](CCCCN)C(=O)N[C@@H](CCC(N)=O)C(=O)N[C@@H](CCC(=O)O)C(=O)N[C@@H](CCCNC(=N)N)C(=O)N[C@@H](CCC(N)=O)C(=O)N[C@@H](CCCCN)C(=O)N[C@@H](CCCCN)C(=O)N[C@@H](CCC(N)=O)C(=O)N[C@@H](CCCNC(=N)N)C(=O)N[C@@H](CCC(=O)O)C(=O)N[C@@H](CCCCN)C(=O)N[C@@H](C)C(=O)N[C@@H](CCCCN)C(=O)N[C@H](C(=O)N[C@@H](CC(N)=O)C(=O)NC(C)(C)C(=O)N[C@@H](CCC(N)=O)C(=O)N[C@H](C(=O)N[C@@H](CC(C)C)C(=O)N[C@@H](C)C(=O)N[C@@H](CCC(N)=O)C(=O)N[C@H](C(N)=O)C(C)C)[C@@H](C)CC)[C@@H](C)O)[C@@H](C)CC)C(C)C)C(C)C [compound 91] (H-IVLSLDVPIKLK([AEEA-AEEA-γGlu-C18 diacid])QKLLKQERQKKQREKAKTN[Aib]QILAQV-NH2)	14.3 nM	–
CC[C@H](C)[C@H](N)C(=O)N[C@H](C(=O)N[C@@H](CC(C)C)C(=O)N[C@@H](CO)C(=O)N[C@@H](CC(C)C)C(=O)N[C@@H](CC(=O)O)C(=O)N[C@H](C(=O)N1CCC[C@H]1C(=O)N[C@H](C(=O)N[C@@H](CCCCN)C(=O)N[C@@H](CC(C)C)C(=O)N[C@@H](CCCCNC(=O)COCCOCCNC(=O)COCCOCCNC(=O)CC[C@H](NC(=O)CCCCCCCCCCCCCCCCC(=O)O)C(=O)O)C(=O)N[C@@H](CCC(N)=O)C(=O)N[C@@H](CCCCN)C(=O)N[C@@H](CC(C)C)C(=O)N[C@@H](CC(C)C)C(=O)N[C@@H](CCCCN)C(=O)N[C@@H](CCC(N)=O)C(=O)N[C@@H](CCC(=O)O)C(=O)N[C@@H](CCCNC(=N)N)C(=O)N[C@@H](CCC(N)=O)C(=O)N[C@@H](CCCCN)C(=O)N[C@@H](CCCCN)C(=O)N[C@@H](CCC(N)=O)C(=O)N[C@@H](CCCNC(=N)N)C(=O)N[C@@H](CCC(=O)O)C(=O)N[C@@H](CCCCN)C(=O)N[C@@H](C)C(=O)N[C@@H](CCCCN)C(=O)N[C@H](C(=O)N[C@@H](CC(N)=O)C(=O)N[C@H](C(=O)N[C@@H](CCC(N)=O)C(=O)N[C@H](C(=O)N[C@@H](CC(C)C)C(=O)N[C@@H](C)C(=O)N[C@@H](CCC(N)=O)C(=O)N[C@H](C(N)=O)C(C)C)[C@@H](C)CC)C(C)C)[C@@H](C)O)[C@@H](C)CC)C(C)C)C(C)C [compound 93] (H-IVLSLDVPIKLK([AEEA-AEEA-γGlu-C18 diacid])QKLLKQERQKKQREKAKTNVQILAQV-NH2; N-terminus assumed)	50.9 nM	–

Continued by falling EC50 [1], values first:

EC50 [1]	EC50 [2]	Structure (SMILES)
9.17 nM	–	CC[C@H](C)[C@H](N)C(=O)N[C@H](C(=O)N[C@@H](CC(C)C)C(=O)N[C@@H](CO)C(=O)N[C@@H](CC(C)C)C(=O)N[C@@H](CC(=O)O)C(=O)N[C@H](C(=O)N1CCC[C@H]1C(=O)N[C@H](C(=O)N[C@@H](CCCCN)C(=O)N[C@@H](CC(C)C)C(=O)N[C@@H](CCCCNC(=O)COCCOCCNC(=O)COCCOCCNC(=O)CC[C@H](NC(=O)CCCCCCCCCCCCCCCCC(=O)O)C(=O)O)C(=O)N[C@@H](CCC(N)=O)C(=O)N[C@@H](CCCCN)C(=O)N[C@@H](CC(C)C)C(=O)N[C@@H](CC(C)C)C(=O)N[C@@H](CCC(=O)O)C(=O)N[C@@H](CCC(N)=O)C(=O)N[C@@H](CCC(=O)O)C(=O)N[C@@H](CCCNC(=N)N)C(=O)N[C@@H](CCC(N)=O)C(=O)N[C@@H](CCCCN)C(=O)N[C@@H](CCCCN)C(=O)N[C@@H](CCC(N)=O)C(=O)N[C@@H](CCCNC(=N)N)C(=O)N[C@@H](CCC(=O)O)C(=O)N[C@@H](CCC(N)=O)C(=O)N[C@@H](C)C(=O)N[C@@H](CCC(=O)O)C(=O)N[C@H](C(=O)N[C@@H](CC(N)=O)C(=O)NC(C)(C)C(=O)N[C@@H](CCC(N)=O)C(=O)N[C@H](C(=O)N[C@@H](CC(C)C)C(=O)N[C@@H](C)C(=O)N[C@@H](CCC(N)=O)C(=O)N[C@H](C(N)=O)C(C)C)[C@@H](C)CC)[C@@H](C)O)[C@@H](C)CC)C(C)C)C(C)C [compound 92] (H-IVLSLDVPIKLK([AEEA-AEEA-γGlu-C18 diacid])QKLLEQERQKKQREQAETN[Aib]QILAQV-NH2; N-terminus assumed)
1.85 nM	61.7 nM	CC[C@H](C)[C@H](N)C(=O)N[C@H](C(=O)N[C@@H](CC(C)C)C(=O)N[C@@H](CO)C(=O)N[C@@H](CC(C)C)C(=O)N[C@@H](CC(=O)O)C(=O)N[C@H](C(=O)N1CCC[C@H]1C(=O)N[C@H](C(=O)N[C@@H](CCCCN)C(=O)N[C@@H](CC(C)C)C(=O)N[C@@H](CCCCNC(=O)COCCOCCNC(=O)COCCOCCNC(=O)CC[C@H](NC(=O)CCCCCCCCCCCCCCCCC(=O)O)C(=O)O)C(=O)N[C@@H](CCC(N)=O)C(=O)N[C@@H](CCCCN)C(=O)N[C@@H](CC(C)C)C(=O)N[C@@H](CC(C)C)C(=O)N[C@@H](CCC(=O)O)C(=O)N[C@@H](CCC(N)=O)C(=O)N[C@@H](CCC(=O)O)C(=O)N[C@@H](CCCCN)C(=O)N[C@@H](CCC(N)=O)C(=O)N[C@@H](CCCCN)C(=O)N[C@@H](CCCCN)C(=O)N[C@@H](CCC(N)=O)C(=O)N[C@@H](CCCNC(=N)N)C(=O)N[C@@H](CCC(=O)O)C(=O)N[C@@H](CCC(N)=O)C(=O)N[C@@H](C)C(=O)N[C@@H](CCC(=O)O)C(=O)N[C@H](C(=O)N[C@@H](CC(N)=O)C(=O)N[C@@H](CCCCN)C(=O)N[C@@H](CCC(N)=O)C(=O)N[C@H](C(=O)N[C@@H](CC(C)C)C(=O)N[C@@H](C)C(=O)N[C@@H](CCC(N)=O)C(=O)N[C@H](C(N)=O)C(C)C)[C@@H](C)CC)[C@@H](C)O)[C@@H](C)CC)C(C)C)C(C)C [compound 84] (H-IVLSLDVPIKLK([AEEA-AEEA-γGlu-C18 diacid])QKLLEQEKQKKQREQAETNKQILAQV-NH2; N-terminus assumed)
1.73 nM	49.1 nM	CC[C@H](C)[C@H](N)C(=O)N[C@H](C(=O)N[C@@H](CC(C)C)C(=O)N[C@@H](CO)C(=O)N[C@@H](CC(C)C)C(=O)N[C@@H](CC(=O)O)C(=O)N[C@H](C(=O)N1CCC[C@H]1C(=O)N[C@H](C(=O)N[C@@H](CCCCN)C(=O)N[C@@H](CC(C)C)C(=O)N[C@@H](CCCCNC(=O)COCCOCCNC(=O)COCCOCCNC(=O)CC[C@H](NC(=O)CCCCCCCCCCCCCCCCC(=O)O)C(=O)O)C(=O)N[C@@H](CCCCN)C(=O)N[C@H](C(=O)N[C@@H](CC(C)C)C(=O)N[C@@H](CC(C)C)C(=O)N[C@@H](CCCCN)C(=O)N[C@@H](CCC(N)=O)C(=O)N[C@@H](CCC(=O)O)C(=O)N[C@@H](CCCNC(=N)N)C(=O)N[C@@H](CCC(N)=O)C(=O)N[C@@H](CCCCN)C(=O)N[C@@H](CCCCN)C(=O)N[C@@H](CCC(=O)O)C(=O)N[C@@H](CCCNC(=N)N)C(=O)N[C@@H](CCC(=O)O)C(=O)N[C@@H](CCC(N)=O)C(=O)N[C@@H](C)C(=O)N[C@@H](CCC(=O)O)C(=O)N[C@H](C(=O)N[C@@H](CC(N)=O)C(=O)N[C@@H](CCCCN)C(=O)N[C@@H](CCC(N)=O)C(=O)N[C@H](C(=O)N[C@@H](CC(C)C)C(=O)N[C@@H](C)C(=O)N[C@@H](CCC(N)=O)C(=O)N[C@H](C(N)=O)C(C)C)[C@@H](C)CC)[C@@H](C)O)[C@@H](C)CC)[C@@H](C)CC)C(C)C)C(C)C [compound 94] (H-IVLSLDVPIKLK([AEEA-AEEA-γGlu-C18 diacid])KILLKQERQKKEREQAETNKQILAQV-NH2)
